# Measured values reported in patent US20240246992A1, “MACROCYCLIC LRRK2 KINASE INHIBITORS” (LES LABORATOIRES SERVIER, priority 2021, published 2024).
# Molecular target: human recombinant LRRK2 protein (Homo sapiens, UniProt Q5S007)
# Assay: LRRK2 kinase activity assay (ADP-Glo, LRRKtide peptide)
# Type: biochemical
# Conditions: human recombinant LRRK2 wt, LRRKtide peptide and ATP, 1 h at 37° C.
# How it was run: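 ADP-Glo luminescence read-out of a peptide assay: compound, ATP and LRRKtide substrate combined with recombinant human LRRK2 and incubated at 37 °C for 1 h. Ten-point data, N=2, curve-fitted to IC50.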
# human recombinant LRRK2 protein, sequence (Q5S007 whole entry): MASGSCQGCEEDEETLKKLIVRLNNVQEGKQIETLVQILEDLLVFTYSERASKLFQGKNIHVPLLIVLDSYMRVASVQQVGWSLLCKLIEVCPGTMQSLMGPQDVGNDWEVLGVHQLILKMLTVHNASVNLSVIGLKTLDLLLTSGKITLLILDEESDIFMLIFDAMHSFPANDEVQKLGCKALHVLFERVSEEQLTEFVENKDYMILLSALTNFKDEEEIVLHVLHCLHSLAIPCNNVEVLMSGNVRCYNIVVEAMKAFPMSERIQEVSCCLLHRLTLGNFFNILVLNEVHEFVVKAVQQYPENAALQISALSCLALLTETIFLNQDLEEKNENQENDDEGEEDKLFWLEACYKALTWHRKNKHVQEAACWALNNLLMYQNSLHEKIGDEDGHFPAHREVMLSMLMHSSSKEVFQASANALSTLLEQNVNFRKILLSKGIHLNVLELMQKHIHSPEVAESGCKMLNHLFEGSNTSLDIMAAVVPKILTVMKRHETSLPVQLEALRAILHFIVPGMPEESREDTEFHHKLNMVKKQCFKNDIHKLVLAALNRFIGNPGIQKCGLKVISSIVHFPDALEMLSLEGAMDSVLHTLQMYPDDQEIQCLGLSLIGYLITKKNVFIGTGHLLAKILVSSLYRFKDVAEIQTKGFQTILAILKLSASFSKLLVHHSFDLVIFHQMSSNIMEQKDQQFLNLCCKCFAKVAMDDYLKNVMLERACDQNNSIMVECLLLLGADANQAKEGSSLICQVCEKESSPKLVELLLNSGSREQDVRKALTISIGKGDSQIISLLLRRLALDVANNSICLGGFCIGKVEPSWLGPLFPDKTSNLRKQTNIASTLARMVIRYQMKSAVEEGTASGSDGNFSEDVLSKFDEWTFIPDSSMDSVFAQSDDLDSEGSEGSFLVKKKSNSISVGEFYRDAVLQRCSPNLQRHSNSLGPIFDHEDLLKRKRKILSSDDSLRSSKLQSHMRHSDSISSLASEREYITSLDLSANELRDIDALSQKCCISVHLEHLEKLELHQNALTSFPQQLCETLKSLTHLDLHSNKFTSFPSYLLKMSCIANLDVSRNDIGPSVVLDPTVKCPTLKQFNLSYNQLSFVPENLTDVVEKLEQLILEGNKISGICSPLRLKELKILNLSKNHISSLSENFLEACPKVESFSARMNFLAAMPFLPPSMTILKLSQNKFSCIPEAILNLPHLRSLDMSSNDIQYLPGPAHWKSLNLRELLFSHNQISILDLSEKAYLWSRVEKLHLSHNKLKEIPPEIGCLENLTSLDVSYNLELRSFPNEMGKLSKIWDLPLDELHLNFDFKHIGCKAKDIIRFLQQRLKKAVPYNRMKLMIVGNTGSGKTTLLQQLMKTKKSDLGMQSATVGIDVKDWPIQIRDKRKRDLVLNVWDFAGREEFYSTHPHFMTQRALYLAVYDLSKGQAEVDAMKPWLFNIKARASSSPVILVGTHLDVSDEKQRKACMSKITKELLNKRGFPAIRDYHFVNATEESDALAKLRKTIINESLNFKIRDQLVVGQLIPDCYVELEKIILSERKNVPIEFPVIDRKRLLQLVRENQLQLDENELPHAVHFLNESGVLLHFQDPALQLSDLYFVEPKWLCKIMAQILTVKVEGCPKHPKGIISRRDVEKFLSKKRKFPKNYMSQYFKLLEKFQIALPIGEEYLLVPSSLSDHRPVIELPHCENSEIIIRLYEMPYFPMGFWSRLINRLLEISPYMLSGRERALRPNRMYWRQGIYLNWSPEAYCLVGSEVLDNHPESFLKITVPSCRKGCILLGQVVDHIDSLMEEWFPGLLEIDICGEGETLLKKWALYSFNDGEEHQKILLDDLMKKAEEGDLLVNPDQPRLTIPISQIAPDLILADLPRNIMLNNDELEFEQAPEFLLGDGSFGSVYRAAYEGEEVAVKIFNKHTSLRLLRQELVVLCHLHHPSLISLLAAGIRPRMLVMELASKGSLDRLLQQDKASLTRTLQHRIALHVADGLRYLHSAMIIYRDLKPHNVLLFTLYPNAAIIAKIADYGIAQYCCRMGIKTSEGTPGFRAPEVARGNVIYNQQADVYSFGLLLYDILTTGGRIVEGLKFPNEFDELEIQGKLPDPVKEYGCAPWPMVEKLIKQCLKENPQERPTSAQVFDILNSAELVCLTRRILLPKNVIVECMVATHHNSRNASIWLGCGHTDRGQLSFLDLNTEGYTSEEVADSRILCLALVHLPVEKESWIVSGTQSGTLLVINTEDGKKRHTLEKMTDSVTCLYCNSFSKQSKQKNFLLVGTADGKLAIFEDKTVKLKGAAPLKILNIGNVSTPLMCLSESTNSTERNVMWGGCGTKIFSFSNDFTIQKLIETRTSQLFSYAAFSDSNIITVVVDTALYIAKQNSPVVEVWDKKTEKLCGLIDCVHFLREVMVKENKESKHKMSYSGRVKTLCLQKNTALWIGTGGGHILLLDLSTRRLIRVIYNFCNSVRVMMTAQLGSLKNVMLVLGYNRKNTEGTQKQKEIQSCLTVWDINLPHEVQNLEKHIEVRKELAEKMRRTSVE
row,SMILES,IC50
1,"c1nn2cc1-c1n[nH]c3ccc(nc13)OCCOCCOCC2 [Example 73, 8,11,14-trioxa-4,5,19,20,22-pentaazatetracyclo[13.5.2.1^2,5.0^18,21]tricosa-1(20),2(23),3,15(22), 16,18(21)-hexaene]",< 100 nM
2,"c1cc2[nH]nc3c2cc1OCCCOCCCn1ncc-3n1 [Example 74, 9,13-dioxa-4,5,18,19,22-pentaazatetracyclo[12.5.2.1^2,5.0^17,20]docosa-1(19), 2(22),3,14(21),15,17(20)-hexaene]",< 10 nM
3,"C[C@@H]1CCOCCOCC2=NC=C(S2)c2n[nH]c3ccc(cc23)O1 [Example 75, (13R)-13-methyl-7,10,14-trioxa-23-thia-4,19,20-triazatetracyclo[13.5.2.1^2,5.0^18,21]tricosa-1(20),2,4,15(22),16,18(21)-hexaene]",< 10 nM
4,"C[C@@H]1COCCOCCc2nc(cn2C)-c2n[nH]c3ccc(cc23)O1 [Example 76, (13R)-4,13-dimethyl-8,11,14-trioxa-4,19,20,23-tetraazatetracyclo[13.5.2.1^2,5.0^18,21]tricosa-1(20),2,5(23),15(22),16,18(21)-hexaene]",> 1000 nM
5,"C[C@@H]1Cn2cc(cn2)-c2n[nH]c3ccc(cc23)OCCOCCO1 [Example 77, (7R)-7-methyl-8,11,14-trioxa-4,5,19,20-tetraazatetracyclo[13.5.2.1^2,5.0^18,21] tricosa-1(20),2(23),3,15(22),16,18(21)-hexaene]",< 100 nM
6,"FC1(F)COCCOCCn2cc(cn2)-c2n[nH]c3ccc(cc23)O1 [Example 78, 13,13-difluoro-8,11,14-trioxa-4,5,19,20-tetraazatetra cyclo[13.5.2.1^2,5.0^18,21]tricosa-1(20),2(23),3, 15(22),16,18(21)-hexaene]",< 10 nM
7,"C[C@H]1CCOCCOCc2nc(cn2C)-c2n[nH]c3ccc(cc23)O1 [Example 79, (13S)-4,13-dimethyl-7,10,14-trioxa-4,19,20,23-tetraazatetracyclo[13.5.2.1^2,5.0^18,21]tricosa-1(20),2,5(23),15(22),16,18(21)-hexaene]",< 100 nM
8,"C[C@H]1COCCOCCn2ccc(n2)-c2n[nH]c3ccc(cc23)O1 [Example 80, (13S)-13-methyl-8,11,14-trioxa-5,19,20,23-tetraazatetracyclo [13.5.2.1^2,5.0^18,21]tricosa-1(20),2(23),3,15(22),16,18(21)-hexaene]",< 1000 nM
9,"C[C@H]1COCCOCCn2ncc(n2)-c2n[nH]c3ccc(cc23)O1 [Example 81, (13S)-13-methyl-8,11,14-trioxa-4,5,19,20,23-pentaazatetracyclo[13.5.2.1^2,5.0^18,21]tricosa-1(20),2(23),3,15(22),16,18(21)-hexaene]",< 100 nM
10,"C[C@@H]1COCCOCCn2cc(cc2C#N)-c2n[nH]c3ccc(cc23)O1 [Example 82, (13R)-13-methyl-8,11,14-trioxa-5,19,20-triazatetracyclo[13.5.2.1^2,5.0^18,21] tricosa-1(20),2(23),3,15(22),16,18(21)-hexaene-4-carbonitrile]",< 100 nM
11,"C[C@@H]1COCCOCCn2ccc(n2)-c2n[nH]c3ccc(cc23)O1 [Example 83, (13R)-13-methyl-8,11,14-trioxa-5,19,20,23-tetraazatetracyclo[13.5.2.1^2,5.0^18,21]tricosa-1(20),2(23),3,15(22),16,18(21)-hexaene]",< 1000 nM
12,"c1cc2[nH]nc3c2cc1OCCOCCCOCc1ncc-3s1 [Example 84, 7,11,14-trioxa-23-thia-4,19,20-triazatetracyclo[13.5.2.1^2,5.0^18,21]tricosa-1(20),2,4,15(22), 16,18(21)-hexaene]",< 10 nM
13,"C[C@H]1COc2ccc3[nH]nc(c3c2)-c2cc(C#N)n(c2)CCOCCO1 [Example 85, (12S)-12-methyl-8,11,14-trioxa-5,19,20-triazatetracyclo[13.5.2.1^2,5.0^18,21] tricosa-1(20),2(23),3,15(22),16,18(21)-hexaene-4-carbonitrile]",< 10 nM
14,"C[C@@H]1COc2ccc3[nH]nc(c3c2)-c2cc(C#N)n(c2)CCOCCO1 [Example 86, (12R)-12-methyl-8,11,14-trioxa-5,19,20-triazatetracyclo [13.5.2.1^2,5.0^18,21]tricosa-1(20),2(23),3,15(22),16,18(21)-hexaene-4-carbonitrile]",< 10 nM
15,"C[C@@H]1COCCO[C@@H](C)COc2ccc3[nH]nc(c3c2)-c2cnn1c2 [Example 87, (6R,12S)-6,12-dimethyl-8,11,14-trioxa-4,5,19,20-tetraazatetracyclo[13.5.2.1^2,5.0^18,21]tricosa-1(20),2(23),3,15(22),16,18(21)-hexaene]",< 10 nM
16,"C[C@@H]1COCCOCCn2cc(cn2)-c2n[nH]c3c(F)cc(cc23)O1 [Example 88, (13R)-17-fluoro-13-methyl-8,11,14-trioxa-4,5,19,20-tetraazatetracyclo [13.5.2.1^2,5.0^18,21]tricosa-1(20),2(23),3,15(22),16,18(21)-hexaene]",< 10 nM

row,SMILES,IC50
1,"C[C@H]1COc2ccc3[nH]nc(c3c2)-c2cnn(c2)[C@@H](C)COCCO1 [Example 89, (6S,12S)-6,12-dimethyl-8,11,14-trioxa-4,5,19,20-tetraazatetracyclo [13.5.2.1^2,5.0^18,21]tricosa-1(20),2(23),3,15(22),16,18(21)-hexaene]",< 10 nM
2,"C[C@@H]1CCOCCCn2ncc(n2)-c2n[nH]c3ccc(cc23)O1 [Example 90, (12R)-12-methyl-9,13-dioxa-4,5,18,19,22-pentaazatetracyclo[12.5.2.1^2,5.0^17,20]docosa-1(19),2(22),3,14(21),15,17(20)-hexaene]",< 10 nM
3,"CN1CCOCCOc2cc(cc(N3CCOCC3)c2)-c2n[nH]c3ccc(cc23)C1 [Example 91, 13-methyl-4-(morpholin-4-yl)-7,10-dioxa-13,19,20-triazatetracyclo [13.5.2.1^2,6.0^18,21]tricosa-1(20),2,4,6(23),15,17,21-heptaene]",< 100 nM
4,"C[C@H]1CCOCCCn2ncc(n2)-c2n[nH]c3ccc(cc23)O1 [Example 92, (12S)-12-methyl-9,13-dioxa-4,5,18,19,22-pentaazatetracyclo[12.5.2.1^2,5.0^17,20]docosa-1(19),2(22),3,14(21),15,17(20)-hexaene]",< 10 nM
5,"C[C@@H]1COCCOC[C@H](C)n2cc(cn2)-c2n[nH]c3ccc(cc23)O1 [Example 93, (6S,13R)-6,13-dimethyl-8,11,14-trioxa-4,5,19,20-tetraazatetracyclo[13.5.2.1^2,5.0^18,21]tricosa-1(20),2(23),3,15(22),16,18(21)-hexaene]",< 100 nM
6,"C[C@@H]1CCOCC[C@@H](C)n2ncc(n2)-c2n[nH]c3ccc(cc23)O1 [Example 94, (6R,12R)-6,12-dimethyl-9,13-dioxa-4,5,18,19,22-pentaazatetracyclo[12.5.2.1^2,5.0^17,20]docosa-1(19),2(22),3,14(21),15,17(20)-hexaene]",< 10 nM
7,"COC1COCCOC[C@@H](C)Oc2ccc3[nH]nc(c3c2)-c2cnn1c2 (stereo partly drawn) [Example 95, (13R)-6-methoxy-13-methyl-8,11,14-trioxa-4,5,19,20-tetraazatetracyclo [13.5.2.1^2,5.0^18,21]tricosa-1(20),2(23),3,15(22),16,18(21)-hexaene]",< 100 nM
8,"c1nn2cc1-c1n[nH]c3cnc(cc13)OCCOCCOCC2 [Example 96, 8,11,14-trioxa-4,5,16,19,20-pentaazatetracyclo[13.5.2.1^2,5.0^18,21]tricosa-1(20),2(23),3,15(22),16,18(21)-hexaene]",< 100 nM
9,"C[C@@H]1CCO[C@@H](C)CCn2cc(cn2)-c2n[nH]c3ccc(cc23)O1 [Example 97, (8S,12R)-8,12-dimethyl-9,13-dioxa-4,5,18,19-tetraaza tetracyclo[12.5.2.1^2,5.0^17,20]docosa-1(19),2(22),3,14(21),15,17(20)-hexaene]",< 10 nM
10,"C[C@@H]1CCn2cc(cn2)-c2n[nH]c3ccc(cc23)O[C@H](C)CCO1 [Example 98, (8R,12R)-8,12-dimethyl-9,13-dioxa-4,5,18,19-tetraazatetracyclo[12.5.2.1^2,5.0^17,20]docosa-1(19),2(22),3,14(21),15,17(20)-hexaene]",< 10 nM
11,"C[C@@H]1OCCOCCn2cc(cn2)-c2n[nH]c3ccc(cc23)O[C@@H]1C [Example 99, (12S,13R)-12,13-dimethyl-8,11,14-trioxa-4,5,19,20-tetraazatetracyclo[13.5.2.1^2,5.0^18,21]tricosa-1(20),2(23),3,15(22),16,18(21)-hexaene]",< 10 nM
12,"C[C@@H]1Oc2ccc3[nH]nc(c3c2)-c2cnn(c2)CCOCCO[C@@H]1C [Example 100, (12R,13S)-12,13-dimethyl-8,11,14-trioxa-4,5,19,20-tetraazatetra cyclo[13.5.2.1^2,5.0^18,21]tricosa-1(20),2(23),3,15(22),16,18(21)-hexaene]",< 100 nM
13,"C[C@H]1COCCOC[C@H](C)n2cc(cn2)-c2n[nH]c3ccc(cc23)O1 [Example 101, (6S,13S)-6,13-dimethyl-8,11,14-trioxa-4,5,19,20-tetraazatetracyclo[13.5.2.1^2,5.0^18,21]tricosa-1(20),2(23),3,15(22),16,18(21)-hexaene]",< 10 nM
14,"c1cc2[nH]nc3c2cc1OCCCCOCCn1cc-3cn1 [Example 102, 8,13-dioxa-4,5,18,19-tetraazatetracyclo[12.5.2.1^2,5.0^17,20]docosa-1(19),2(22),3,14(21),15,17(20)-hexaene]",< 10 nM
15,"C[C@@H]1CCOCC[C@H](C)n2ncc(n2)-c2n[nH]c3ccc(cc23)O1 [Example 103, (6S,12R)-6,12-dimethyl-9,13-dioxa-4,5,18,19,22-pentaazatetracyclo[12.5.2.1^2,5.0^17,20]docosa-1(19),2(22),3,14(21),15,17(20)-hexaene]",< 10 nM
16,"c1cc2[nH]nc3c2cc1OCCOCCCCn1cc-3cn1 [Example 104, 10,13-dioxa-4,5,18,19-tetraazatetracyclo[12.5.2.1^2,5.0^17,20]docosa-1(19),2(22),3,14(21),15,17(20)-hexaene]",< 10 nM
